Inhibition in vivo data for 38 molecules are collected here from ChEMBL document CHEMBL5352433, “Design, synthesis, and biological evaluation of low-toxic lappaconitine derivatives as potential analgesics” (Eur J Med Chem, 2022).

What is called inhibition in vivo is the percentage by which the read-out fell short of the control.

The assay relates to Mus musculus. The assay is described as follows: Analgesic activity against acetic acid-induced Kunming writhing mouse model assessed as inhibition of writhing at 10 mg/kg, sc pretreated with compound for 15 mins followed by acetic acid addition and measured after 15 mins relative to control. It counts as functional. Conditions: 0.5 h, time 30 min. (In general: Writhing tests count abdominal constrictions after an irritant is injected.)

As for `CCN1C[C@]2(OC(=O)c3ccccc3NC(=O)c3cccc(C#N)c3)CC[C@H](OC)[C@]34C1[C@H](C[C@H]23)[C@@]1(O)C[C@H](OC)[C@H]2C[C@@H]4[C@]1(O)[C@H]2OC`, the inhibition in vivo at 10 mg/kg is 10.7%.

With `CCN1C[C@]2(OC(=O)c3ccccc3NC(=O)c3cccc(OC)c3)CC[C@H](OC)[C@]34C1[C@H](C[C@H]23)[C@@]1(O)C[C@H](OC)[C@H]2C[C@@H]4[C@]1(O)[C@H]2OC`, the inhibition in vivo at 10 mg/kg worked out at 0%. Consider `CCN1C[C@]2(OC(=O)c3ccccc3NC(=O)c3ccccc3F)CC[C@H](OC)[C@]34C1[C@H](C[C@H]23)[C@@]1(O)C[C@H](OC)[C@H]2C[C@@H]4[C@]1(O)[C@H]2OC`, for which the inhibition in vivo at 10 mg/kg was 17.7%. Next, `CCN1C[C@]2(OC(=O)c3ccccc3NC(=O)c3ccc(Br)cc3)CC[C@H](OC)[C@]34C1[C@H](C[C@H]23)[C@@]1(O)C[C@H](OC)[C@H]2C[C@@H]4[C@]1(O)[C@H]2OC`: 39.4%.

`CCN1C[C@]2(OC(=O)c3ccccc3NC(=O)c3ccccc3Br)CC[C@H](OC)[C@]34C1[C@H](C[C@H]23)[C@@]1(O)C[C@H](OC)[C@H]2C[C@@H]4[C@]1(O)[C@H]2OC`: the inhibition in vivo at 10 mg/kg is 0%. Turning to `CCN1C[C@]2(OC(=O)c3ccccc3NC(=O)c3cnc(Cl)cn3)CC[C@H](OC)[C@]34C1[C@H](C[C@H]23)[C@@]1(O)C[C@H](OC)[C@H]2C[C@@H]4[C@]1(O)[C@H]2OC`, the inhibition in vivo at 10 mg/kg was determined as 31.5%. With `CCN1C[C@]2(OC(=O)c3ccccc3NC(=O)c3ccc(C)cc3C)CC[C@H](OC)[C@]34C1[C@H](C[C@H]23)[C@@]1(O)C[C@H](OC)[C@H]2C[C@@H]4[C@]1(O)[C@H]2OC`, the inhibition in vivo at 10 mg/kg was determined as 0%. Under `CCN1C[C@]2(OC(=O)c3ccccc3NC(=O)C3CCCC3)CC[C@H](OC)[C@]34C1[C@H](C[C@H]23)[C@@]1(O)C[C@H](OC)[C@H]2C[C@@H]4[C@]1(O)[C@H]2OC` stands 56.9%; under `CCN1C[C@]2(OC(=O)c3ccccc3NS(=O)(=O)CCCCl)CC[C@H](OC)[C@]34C1[C@H](C[C@H]23)[C@@]1(O)C[C@H](OC)[C@H]2C[C@@H]4[C@]1(O)[C@H]2OC`, 32.1%. Under `CCN1C[C@]2(OC(=O)c3ccccc3NC(=O)c3ccc(OC(F)(F)F)cc3)CC[C@H](OC)[C@]34C1[C@H](C[C@H]23)[C@@]1(O)C[C@H](OC)[C@H]2C[C@@H]4[C@]1(O)[C@H]2OC` stands 10%; under `CCN1C[C@]2(OC(=O)c3ccccc3NC(=O)c3cccc(Cl)c3)CC[C@H](OC)[C@]34C1[C@H](C[C@H]23)[C@@]1(O)C[C@H](OC)[C@H]2C[C@@H]4[C@]1(O)[C@H]2OC`, 17.5%; under `CCN1C[C@]2(OC(=O)c3ccccc3NC(=O)c3ccc(Cl)cc3Cl)CC[C@H](OC)[C@]34C1[C@H](C[C@H]23)[C@@]1(O)C[C@H](OC)[C@H]2C[C@@H]4[C@]1(O)[C@H]2OC`, 31.2%. On to `CCN1C[C@]2(OC(=O)c3ccccc3NC(=O)c3ccccc3Cl)CC[C@H](OC)[C@]34C1[C@H](C[C@H]23)[C@@]1(O)C[C@H](OC)[C@H]2C[C@@H]4[C@]1(O)[C@H]2OC`, for which the inhibition in vivo at 10 mg/kg was 4.4%. Under `CCN1C[C@]2(OC(=O)c3ccccc3NC(=O)c3ccccc3)CC[C@H](OC)[C@]34C1[C@H](C[C@H]23)[C@@]1(O)C[C@H](OC)[C@H]2C[C@@H]4[C@]1(O)[C@H]2OC` stands 0%. As to `CCN1C[C@]2(OC(=O)c3ccccc3NC(=O)c3ccccc3N(C)C)CC[C@H](OC)[C@]34C1[C@H](C[C@H]23)[C@@]1(O)C[C@H](OC)[C@H]2C[C@@H]4[C@]1(O)[C@H]2OC`, the inhibition in vivo at 10 mg/kg was 34.2%. Under `CCCCCCC(=O)Nc1ccccc1C(=O)O[C@@]12CC[C@H](OC)[C@]34C([C@H](C[C@H]13)[C@@]1(O)C[C@H](OC)[C@H]3C[C@@H]4[C@]1(O)[C@H]3OC)N(CC)C2` stands 54.2%; under `CCN1C[C@]2(OC(=O)c3ccccc3NS(=O)(=O)CC)CC[C@H](OC)[C@]34C1[C@H](C[C@H]23)[C@@]1(O)C[C@H](OC)[C@H]2C[C@@H]4[C@]1(O)[C@H]2OC`, 4%.

As for `CCN1C[C@]2(OC(=O)c3ccccc3NC(=O)c3ccc(Br)s3)CC[C@H](OC)[C@]34C1[C@H](C[C@H]23)[C@@]1(O)C[C@H](OC)[C@H]2C[C@@H]4[C@]1(O)[C@H]2OC`, the inhibition in vivo at 10 mg/kg is 12.8%.

As to `CCN1C[C@]2(OC(=O)c3ccccc3NC(=O)c3ccc(Cl)cc3)CC[C@H](OC)[C@]34C1[C@H](C[C@H]23)[C@@]1(O)C[C@H](OC)[C@H]2C[C@@H]4[C@]1(O)[C@H]2OC`, the inhibition in vivo at 10 mg/kg was found to be 31.6%.

`CCN1C[C@]2(OC(=O)c3ccccc3NS(C)(=O)=O)CC[C@H](OC)[C@]34C1[C@H](C[C@H]23)[C@@]1(O)C[C@H](OC)[C@H]2C[C@@H]4[C@]1(O)[C@H]2OC`: the inhibition in vivo at 10 mg/kg was 22.8%.

Take `CCN1C[C@]2(OC(=O)c3ccccc3NC(=O)c3cccc(Br)c3)CC[C@H](OC)[C@]34C1[C@H](C[C@H]23)[C@@]1(O)C[C@H](OC)[C@H]2C[C@@H]4[C@]1(O)[C@H]2OC`: the inhibition in vivo at 10 mg/kg was found to be 3.4%. `CCN1C[C@]2(OC(=O)c3ccccc3NC(=O)C3CCCO3)CC[C@H](OC)[C@]34C1[C@H](C[C@H]23)[C@@]1(O)C[C@H](OC)[C@H]2C[C@@H]4[C@]1(O)[C@H]2OC` (stereo partly drawn): the inhibition in vivo at 10 mg/kg was 21.8%.

For `CCN1C[C@]2(OC(=O)c3ccccc3NC(=O)c3ccc([N+](=O)[O-])cc3)CC[C@H](OC)[C@]34C1[C@H](C[C@H]23)[C@@]1(O)C[C@H](OC)[C@H]2C[C@@H]4[C@]1(O)[C@H]2OC`, the inhibition in vivo at 10 mg/kg is 27.2%. Under `CCCOc1ccccc1C(=O)Nc1ccccc1C(=O)O[C@@]12CC[C@H](OC)[C@]34C([C@H](C[C@H]13)[C@@]1(O)C[C@H](OC)[C@H]3C[C@@H]4[C@]1(O)[C@H]3OC)N(CC)C2` stands 19.2%.

In the case of `CCN1C[C@]2(OC(=O)c3ccccc3NC(=O)C3CCCCC3)CC[C@H](OC)[C@]34C1[C@H](C[C@H]23)[C@@]1(O)C[C@H](OC)[C@H]2C[C@@H]4[C@]1(O)[C@H]2OC`, the inhibition in vivo at 10 mg/kg is 34.5%. As to `CCN1C[C@]2(OC(=O)c3ccccc3NC(=O)c3ccc(Cl)c(Cl)c3)CC[C@H](OC)[C@]34C1[C@H](C[C@H]23)[C@@]1(O)C[C@H](OC)[C@H]2C[C@@H]4[C@]1(O)[C@H]2OC`, the inhibition in vivo at 10 mg/kg amounted to 10.4%.

Take `CCc1ccc(C(=O)Nc2ccccc2C(=O)O[C@@]23CC[C@H](OC)[C@]45C([C@H](C[C@H]24)[C@@]2(O)C[C@H](OC)[C@H]4C[C@@H]5[C@]2(O)[C@H]4OC)N(CC)C3)cc1`: the inhibition in vivo at 10 mg/kg is 26.7%.

With `CCN1C[C@]2(OC(=O)c3ccccc3NC(=O)c3cccc(C)c3)CC[C@H](OC)[C@]34C1[C@H](C[C@H]23)[C@@]1(O)C[C@H](OC)[C@H]2C[C@@H]4[C@]1(O)[C@H]2OC`, the inhibition in vivo at 10 mg/kg is 36.9%. For `CCN1C[C@]2(OC(=O)c3ccccc3NC(=O)c3ccc(C#N)cc3)CC[C@H](OC)[C@]34C1[C@H](C[C@H]23)[C@@]1(O)C[C@H](OC)[C@H]2C[C@@H]4[C@]1(O)[C@H]2OC`, the inhibition in vivo at 10 mg/kg is 31.5%.

As for `CCCCc1ccc(C(=O)Nc2ccccc2C(=O)O[C@@]23CC[C@H](OC)[C@]45C([C@H](C[C@H]24)[C@@]2(O)C[C@H](OC)[C@H]4C[C@@H]5[C@]2(O)[C@H]4OC)N(CC)C3)cc1`, the inhibition in vivo at 10 mg/kg came to 28.2%.

In the case of `CCN1C[C@]2(OC(=O)c3ccccc3NC(=O)c3ccc(Cl)s3)CC[C@H](OC)[C@]34C1[C@H](C[C@H]23)[C@@]1(O)C[C@H](OC)[C@H]2C[C@@H]4[C@]1(O)[C@H]2OC`, the inhibition in vivo at 10 mg/kg is 27.8%. Next, `CCN1C[C@]2(OC(=O)c3ccccc3NC(=O)C3CCOC3)CC[C@H](OC)[C@]34C1[C@H](C[C@H]23)[C@@]1(O)C[C@H](OC)[C@H]2C[C@@H]4[C@]1(O)[C@H]2OC` (stereo partly drawn): 34%. Next, `CCN1C[C@]2(OC(=O)c3ccccc3NC(=O)c3ccc(OC)c(OC)c3)CC[C@H](OC)[C@]34C1[C@H](C[C@H]23)[C@@]1(O)C[C@H](OC)[C@H]2C[C@@H]4[C@]1(O)[C@H]2OC`: 34.6%. `CCN1C[C@]2(OC(=O)c3ccccc3NC(=O)c3ccc(S(C)(=O)=O)cc3)CC[C@H](OC)[C@]34C1[C@H](C[C@H]23)[C@@]1(O)C[C@H](OC)[C@H]2C[C@@H]4[C@]1(O)[C@H]2OC`: the inhibition in vivo at 10 mg/kg is 8.4%. Next, `CCN1C[C@]2(OC(=O)c3ccccc3NC(=O)c3ccc(C(C)C)cc3)CC[C@H](OC)[C@]34C1[C@H](C[C@H]23)[C@@]1(O)C[C@H](OC)[C@H]2C[C@@H]4[C@]1(O)[C@H]2OC`: 21%; `CCN1C[C@]2(OC(=O)c3ccccc3NC(=O)c3ccc(C(=O)OC)cc3)CC[C@H](OC)[C@]34C1[C@H](C[C@H]23)[C@@]1(O)C[C@H](OC)[C@H]2C[C@@H]4[C@]1(O)[C@H]2OC`: 36.4%. Next, `CCN1C[C@]2(OC(=O)c3ccccc3NC(=O)c3cccc(F)c3)CC[C@H](OC)[C@]34C1[C@H](C[C@H]23)[C@@]1(O)C[C@H](OC)[C@H]2C[C@@H]4[C@]1(O)[C@H]2OC`: 27.5%; `CCN1C[C@]2(OC(=O)c3ccccc3NC(=O)c3ccc(I)cc3)CC[C@H](OC)[C@]34C1[C@H](C[C@H]23)[C@@]1(O)C[C@H](OC)[C@H]2C[C@@H]4[C@]1(O)[C@H]2OC`: 31.1%.
